Results: patent publication US5102786A, “Biological diagnostic assay system” (PB Diagnostic Systems, Inc., priority 1987, dated 1992)

How the values were obtained:
[1] = tested on: B-phycoerythrin; experiment: Fluorescent emission of B-phycoerythrin as a function of PNS and ANS; conditions: for effect on fluorescence emission of B-phycoerythrin in solution (in words): 0.125-0.50% agent
Method: (§1) The fluorescent emissions of B- and R-phycoerythrin were studied as a function of PNS and 8-anilino-1-naphthalene sulfonic acid (ANS). The experiments were conducted with solutions of the phycoerythrin (1.7×10^-10 M) in HEPES buffer containing varying amounts of PNS and ANS. The phycoerythrins were excited at 560 nm and their emissions measured at 575 nm.

[2] = tested on: R-phycoerythrin; experiment: Fluorescent emission of R-phycoerythrin as a function of PNS and ANS; conditions: for effect on fluorescence emission of R-phycoerythrin in solution (in words): 0.125-0.50% agent
Method: as §1

[3] = biological target: T1, plasma proteins (Homo sapiens, UniProt P02768); experiment: in vitro; format: binding
T1 construct: Experiments were conducted with a set of plasma solutions in HEPES buffer; from tissue; host or cells: plasma
T1 sequence (P02768 25-609): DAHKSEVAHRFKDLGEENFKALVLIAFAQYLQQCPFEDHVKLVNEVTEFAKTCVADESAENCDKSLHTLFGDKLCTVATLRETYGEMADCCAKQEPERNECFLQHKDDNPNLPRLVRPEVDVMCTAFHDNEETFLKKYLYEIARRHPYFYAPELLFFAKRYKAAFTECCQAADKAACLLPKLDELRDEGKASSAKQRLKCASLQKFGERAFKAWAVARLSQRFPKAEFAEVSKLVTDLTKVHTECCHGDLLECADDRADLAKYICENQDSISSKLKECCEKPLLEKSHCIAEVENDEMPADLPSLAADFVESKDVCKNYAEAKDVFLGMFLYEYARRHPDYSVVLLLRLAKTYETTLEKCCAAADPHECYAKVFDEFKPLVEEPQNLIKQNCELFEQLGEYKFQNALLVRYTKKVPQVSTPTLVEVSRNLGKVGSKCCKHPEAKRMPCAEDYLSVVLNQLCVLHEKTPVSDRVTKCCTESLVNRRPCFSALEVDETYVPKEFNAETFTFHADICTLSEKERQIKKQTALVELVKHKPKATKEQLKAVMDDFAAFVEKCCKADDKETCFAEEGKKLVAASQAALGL
Method: Experiments were conducted with a set of plasma solutions in HEPES buffer containing ^14 C-labeled phenytoin (9.3×10^-5 M) and varying amounts of PNS.

[4] = biological target: Human Serum Albumin (HSA) (Homo sapiens, UniProt P02768); experiment: Displacement of sulforhodamine 101 from human serum albumin (Centricon 30 filtration, absorbance 586 nm); format: binding
Human Serum Albumin (HSA), sequence (P02768 25-609): as above
Method: Two sets of aqueous solutions, 1.05×10^-5 M in sulforhodamine 101, were prepared in HEPES buffer with varying amounts of HSA.

[5] = tested on: plasma proteins; experiment: Displacement of a theophylline-rhodamine conjugate from plasma proteins (Centricon 30 filtration, 500-600 nm); format: binding, human
Description: The solutions were centrifuged through a Centricon 30 filter at 5000 g and the filtrates were scanned on a Perkin Elmer λ9 Spectrophotometer at 500-600 nm.

[6] = biological target: T2, HSA (Homo sapiens, UniProt P02768); experiment: Displacement of fluorescein from HSA (Centricon 30 filtration, 490 nm)
T2 sequence (P02768 25-609): as above
Method: (§2) Experiments were carried out with fluorescein and a fluorescein-theophylline conjugate, respectively, dissolved in HEPES buffer and containing various amounts of HSA. […] The solutions were centrifuged through a Centricon 30 filter at 5000 g and the filtrates were scanned at 490 nm.

[7] = tested on: plasma proteins; experiment: Displacement of phenobarbital from plasma protein (filtration through Centricon PM 10, scintillation counting)
[8] = biological target: T2, HSA; experiment: Displacement of a fluorescein-theophylline conjugate from HSA (Centricon 30 filtration, 490 nm); format: binding; parameters: CONJUGATE (free conjugate in filtrate): unit not given here; conditions: 0.2% PNS
Method: as §2

[9] = Solubility of PNS in water; format: physicochemical
[10] = Displacement of phenobarbital from plasma protein (filtration through Centricon PM 10, scintillation counting); conditions: human, plasma
[11] = 0.125% PNS or ANS, excited at 560 nm, emission 575 nm, HEPES buffer

O=S(=O)(O)c1cccc2cccc(Nc3ccccc3)c12 [ANS, 8-anilino-1-naphthalene sulfonic acid, reference compound]
B-phycoerythrin rel. fl. intensity in the presence of PNS or ANS [1, 11]: 0.61 | effect on fluorescence emission of B-phycoerythrin in solution (in words) [1]: quenches the emissions of both phycoerythrins very strongly | B-phycoerythrin rel. fl. intensity in the presence of PNS or ANS ([1]; 0.25% PNS or ANS): 0.43 | B-phycoerythrin rel. fl. intensity in the presence of PNS or ANS ([1]; 0.375% PNS or ANS): 0.33 | B-phycoerythrin rel. fl. intensity in the presence of PNS or ANS ([1]; 0.50% PNS or ANS): 0.25 | R-phycoerythrin rel. fl. intensity in the presence of PNS or ANS [2, 11]: 0.72 | effect on fluorescence emission of R-phycoerythrin in solution (in words) [2]: quenches the emissions of both phycoerythrins very strongly | R-phycoerythrin rel. fl. intensity in the presence of PNS or ANS ([2]; 0.25% PNS or ANS): 0.54 | R-phycoerythrin rel. fl. intensity in the presence of PNS or ANS ([2]; 0.375% PNS or ANS): 0.40 | R-phycoerythrin rel. fl. intensity in the presence of PNS or ANS ([2]; 0.50% PNS or ANS): 0.29

O=S(=O)(O)c1cccc2cccc(Oc3ccccc3)c12 [PNS, 1-phenoxynaphthalene-8-sulfonic acid]
% Phenytoin (±3) passed through filter ([3]; 0.1% PNS): 97.5% | providing free phenytoin (in words) ([3]; 0.1-0.5% PNS): very effective in providing free phenytoin | % Phenytoin (±3) passed through filter ([3]; 0.2% PNS): 98.6% | % Phenytoin (±3) passed through filter ([3]; 0.3% PNS): 98.7% | % Phenytoin (±3) passed through filter ([3]; 0.4% PNS): 98.6% | % Phenytoin (±3) passed through filter ([3]; 0.5% PNS): 96.7% | providing free sulforhodamine 101 (in words) ([4]; 0.2% PNS): very effective in providing free sulforhodamine 101 | % SULFORHODAMINE 101 (PASSED THROUGH FILTER) ([4]; 0.2% PNS, 0% HSA): 100% | % SULFORHODAMINE 101 (PASSED THROUGH FILTER) ([4]; 0.2% PNS, 0.032% HSA): 99% | % SULFORHODAMINE 101 (PASSED THROUGH FILTER) ([4]; 0.2% PNS, 0.064% HSA): 94% | % SULFORHODAMINE 101 (PASSED THROUGH FILTER) ([4]; 0.2% PNS, 0.13% HSA): 88% | % SULFORHODAMINE 101 (PASSED THROUGH FILTER) ([4]; 0.2% PNS, 0.16% HSA): 83% | % SULFORHODAMINE 101 (PASSED THROUGH FILTER) ([4]; 0.2% PNS, 0.32% HSA): 68% | % SULFORHODAMINE 101 (PASSED THROUGH FILTER) ([4]; 0.2% PNS, 0.48% HSA): 61% | % CONJUGATE (free conjugate in the filtrate) ([5]; 0.2% PNS, 0% plasma): 100% | % CONJUGATE (free conjugate in the filtrate) ([5]; 0.2% PNS, 20% plasma): 94% | % CONJUGATE (free conjugate in the filtrate) ([5]; 0.2% PNS, 40% plasma): 88% | % CONJUGATE (free conjugate in the filtrate) ([5]; 0.2% PNS, 60% plasma): 87% | % CONJUGATE (free conjugate in the filtrate) ([5]; 0.2% PNS, 75% plasma): 89% | % CONJUGATE (free conjugate in the filtrate) ([5]; 0.2% PNS, 90% plasma): 88% | providing free conjugate (in words) ([5]; 0.2% PNS, human plasma): very effective in providing free conjugate | providing free dye (in words) ([6]; 0.2% PNS): effective in providing free dye and free conjugate | DYE (free dye in filtrate) ([6]; 0.2% PNS, 0% HSA): 100 | DYE (free dye in filtrate) ([6]; 0.2% PNS, 0.075% HSA): 99 | DYE (free dye in filtrate) ([6]; 0.2% PNS, 0.15% HSA): 97 | DYE (free dye in filtrate) ([6]; 0.2% PNS, 0.3% HSA): 98 | DYE (free dye in filtrate) ([6]; 0.2% PNS, 0.6% HSA): 93 | DYE (free dye in filtrate) ([6]; 0.2% PNS, 0.9% HSA): 92 | DYE (free dye in filtrate) ([6]; 0.2% PNS, 1.2% HSA): 89 | DYE (free dye in filtrate) ([6]; 0.2% PNS, 1.5% HSA): 88 | % PHENOBARBITAL (±3%) (passed through filter) ([7]; 0.02% PNS in human plasma): 62.7% | % PHENOBARBITAL (±3%) (passed through filter) ([7]; 0.05% PNS in human plasma): 71.1% | % PHENOBARBITAL (±3%) (passed through filter) ([7]; 0.2% PNS in human plasma): 93.0% | % PHENOBARBITAL (±3%) (passed through filter) ([7]; 0.5% PNS in human plasma): 97.0% | dissociation of phenobarbital from plasma proteins (in words) ([7]; human, plasma): effective to dissociate phenobarbital from the plasma proteins | B-phycoerythrin rel. fl. intensity in the presence of PNS or ANS [1, 11]: 1.0 | effect on fluorescence emission of B-phycoerythrin in solution (in words) [1]: does not affect the fluorescence emissions | B-phycoerythrin rel. fl. intensity in the presence of PNS or ANS ([1]; 0.25% PNS or ANS): 1.0 | B-phycoerythrin rel. fl. intensity in the presence of PNS or ANS ([1]; 0.375% PNS or ANS): 1.0 | B-phycoerythrin rel. fl. intensity in the presence of PNS or ANS ([1]; 0.50% PNS or ANS): 1.0 | providing free conjugate (in words) [8]: effective in providing free dye and free conjugate | CONJUGATE (free conjugate in filtrate) ([8]; 0% HSA): 100 | CONJUGATE (free conjugate in filtrate) ([8]; 0.075% HSA): 93 | CONJUGATE (free conjugate in filtrate) ([8]; 0.15% HSA): 87 | CONJUGATE (free conjugate in filtrate) ([8]; 0.3% HSA): 87 | CONJUGATE (free conjugate in filtrate) ([8]; 0.6% HSA): 82 | CONJUGATE (free conjugate in filtrate) ([8]; 0.9% HSA): 76 | CONJUGATE (free conjugate in filtrate) ([8]; 1.2% HSA): 72 | CONJUGATE (free conjugate in filtrate) ([8]; 1.5% HSA): 69 | R-phycoerythrin rel. fl. intensity in the presence of PNS or ANS [2, 11]: 1.0 | effect on fluorescence emission of R-phycoerythrin in solution (in words) [2]: does not affect the fluorescence emissions | R-phycoerythrin rel. fl. intensity in the presence of PNS or ANS ([2]; 0.25% PNS or ANS): 0.99 | R-phycoerythrin rel. fl. intensity in the presence of PNS or ANS ([2]; 0.375% PNS or ANS): 0.99 | R-phycoerythrin rel. fl. intensity in the presence of PNS or ANS ([2]; 0.50% PNS or ANS): 0.98 | solubility in water ([9]; pH range of interest (above 3, preferably 6 to 8)): soluble in water at the required concentrations | solubility in water ([9]; very low pH, below pH 3): precipitate from solution

O=C1OC2(c3ccc(O)cc3Oc3cc(O)ccc32)c2ccccc21 [fluorescein, reference compound]
DYE (free dye in filtrate) ([6]; CONTROL (no PNS), 0% HSA, HEPES buffer): 100 | DYE (free dye in filtrate) ([6]; CONTROL (no PNS), 0.075% HSA): 83 | DYE (free dye in filtrate) ([6]; CONTROL (no PNS), 0.15% HSA): 69 | DYE (free dye in filtrate) ([6]; CONTROL (no PNS), 0.3% HSA): 52 | DYE (free dye in filtrate) ([6]; CONTROL (no PNS), 0.5% HSA): 40 | DYE (free dye in filtrate) ([6]; CONTROL (no PNS), 0.6% HSA): 35 | DYE (free dye in filtrate) ([6]; CONTROL (no PNS), 1.0% HSA): 24 | DYE (free dye in filtrate) ([6]; CONTROL (no PNS), 1.2% HSA): 20 | DYE (free dye in filtrate) ([6]; CONTROL (no PNS), 1.5% HSA): 17

CCC1(c2ccccc2)C(=O)NC(=O)NC1=O [phenobarbital, reference compound]
fraction unbound [10]: ~0.55 | fraction unbound at 1 h [10]: 0.555

O=C1NC(=O)C(c2ccccc2)(c2ccccc2)N1 [phenytoin, reference compound]
fraction unbound at 93 µM ([3]; plasma): 0.119

O=S(=O)([O-])c1cc(S(=O)(=O)O)ccc1C1=c2cc3c4c(c2Oc2c1cc1c5c2CCCN5CCC1)CCC[N+]=4CCC3 [sulforhodamine 101, reference compound]
% SULFORHODAMINE 101 (PASSED THROUGH FILTER) ([4]; CONTROL (no PNS), 0% HSA, HEPES buffer, 10.5 µM): 100% | % SULFORHODAMINE 101 (PASSED THROUGH FILTER) ([4]; CONTROL (no PNS), 0.032% HSA, 10.5 µM): 83% | % SULFORHODAMINE 101 (PASSED THROUGH FILTER) ([4]; CONTROL (no PNS), 0.064% HSA, 10.5 µM): 50% | % SULFORHODAMINE 101 (PASSED THROUGH FILTER) ([4]; CONTROL (no PNS), 0.13% HSA, 10.5 µM): 32% | % SULFORHODAMINE 101 (PASSED THROUGH FILTER) ([4]; CONTROL (no PNS), 0.16% HSA, 10.5 µM): 23% | % SULFORHODAMINE 101 (PASSED THROUGH FILTER) ([4]; CONTROL (no PNS), 0.32% HSA, 10.5 µM): 10% | % SULFORHODAMINE 101 (PASSED THROUGH FILTER) ([4]; CONTROL (no PNS), 0.48% HSA, 10.5 µM): 6%

Cn1c(=O)c2[nH]c(CCCC(=O)N3CCN(C(=O)c4ccccc4C4=c5cc6c(cc5Oc5cc7c(cc54)CCCN7CC(=O)NCCS(=O)(=O)O)=[N+](CC(=O)NCCS(=O)(=O)[O-])CCC6)CC3)nc2n(C)c1=O [theophylline-rhodamine conjugate, reference compound]
% CONJUGATE (free conjugate in the filtrate) ([5]; CONTROL (no PNS), 0% plasma, 10 µM): 100% | % CONJUGATE (free conjugate in the filtrate) ([5]; CONTROL (no PNS), 5% plasma, 10 µM): 93% | % CONJUGATE (free conjugate in the filtrate) ([5]; CONTROL (no PNS), 20% plasma, 10 µM): 82% | % CONJUGATE (free conjugate in the filtrate) ([5]; CONTROL (no PNS), 45% plasma, 10 µM): 70% | % CONJUGATE (free conjugate in the filtrate) ([5]; CONTROL (no PNS), 65% plasma, 10 µM): 66% | % CONJUGATE (free conjugate in the filtrate) ([5]; CONTROL (no PNS), 85% plasma, 10 µM): 57% | % CONJUGATE (free conjugate in the filtrate) ([5]; CONTROL (no PNS), 95% plasma in HEPES buffer, 10 µM): 50%
